This note sets out measurements from patent publication US20090074911A1, “Indicia-Bearing Package For Delivery Systems” (CADBURY ADAMS USA LLC, priority 2005, published 2009).

SMILES strings stand for the structures.

This data set is described as follows: Discoloration (degradation) of sucralose during encapsulation. The format is physicochemical. As for the experimental part:
As one example of a hydrophilic coating, sucralose was mixed with powdered polyvinyl acetate and 5% fat and extruded at 110° C. […] In an alternative encapsulation, sucralose was mixed with powdered polyvinyl acetate, 2% polyvinylpyrollidone and 1% magnesium stearate and pressed into tablets at 25° C. The tablets were then heated to 80° C., which softened the polymer and fused the polyvinylacetate with the sucralose. […] Thereafter, the tablets were cooled, ground and sized and analyzed. […] As another example, a polymer/sweetener matrix was prepared as described above in this paragraph. A solution of gum arabic was made and coated on the polymer/sweetener matrix particles using the method described in U.S. Pat. No. 3,196,827, the relevant portions of which are incorporated herein by reference. Coating levels were 20, 30, 40, and 50% for different samples. Chewing gums prepared with the coated polymer/sweetener matrix particles were chewed by a panel with bolus collection at 5, 10, 15, 20 minutes. Residual sucralose was analyzed in each chewed bolus.

Turning to `OC[C@H]1O[C@H](O[C@]2(CCl)O[C@H](CCl)[C@@H](O)[C@@H]2O)[C@H](O)[C@@H](O)[C@H]1Cl` [sucralose], the “discoloration indicating degradation of the sucralose” value (mixed with powdered polyvinyl acetate and 5% fat, extruded at 110° C.) is given as “Extensive discoloration”. Moreover, the “discoloration of the sucralose” value is “No discoloration” (mixed with powdered polyvinyl acetate, 2% polyvinylpyrollidone, 1% magnesium stearate, pressed into tablets at 25° C., heated to 80° C.); “no discoloration” (same tablets after being cooled, ground, sized and analyzed).
